Results on eight compounds are retold here after patent US20090298889A1, “PHARMACEUTICAL COMPOSITIONS CONTAINING 2-PYRIDONE DERIVATIVES AS EFFECTIVE COMPONENTS” (SATO PHARMACEUTICAL CO., LTD., priority 2005, published 2009).

One data set relates to neutrophils. In words: Test for examining cell adhesion-inhibitory effect (TNF-α-stimulated neutrophil adhesion to keyhole limpet hemocyanin-coated plate, Alamar blue fluorescence). Format: cell-based, human (healthy person). As to conditions: 0.5 h, human neutrophils stimulated with TNF-α 10 ng/mL, 37° C. 30 minutes, Probit technique, read-out: IC50 (50%-inhibitory concentration of cell adhesion). Here is the method: To a 96-well culture plate coated, in advance, with keyhole limpet hemocyanin, there was added 0.05 mL each of a solution of a candidate test compound in dimethylsulfoxide diluted to a final dimethylsulfoxide concentration of 1% with DMEM. A blood sample was collected from a healthy person through the median vein of elbow and the neutrophils were fractionated or isolated through the use of Mono-Poly Separation Liquid and the centrifugation. The fractionated neutrophils were suspended in DMEM to a concentration of 1×10^6 cells/mL and 0.1 mL of the resulting neutrophil-containing suspension was added to each well of the culture plate. Moreover, 40 ng/mL of tumor-necrosis factor (TNF)-α was diluted with DMEM to a final concentration of 10 ng/mL and 0.05 mL of the resulting diluted solution was added to each well of the culture plate. After the culture plate was allowed to stand at 37° C. for 30 minutes in a CO2-incubator, the plate was washed three times (thrice) with 0.2 mL of phosphate-buffered physiological saline (PBS(−), available from GIBCO Corporation). In addition, to each well, there was added 0.1 mL of a 10% solution of Alamar blue in DMEM, the culture plate was allowed to stand at 37° C. for 3 hours in a CO2-incubator, and then the intensity of fluorescent rays emitted from the adhered neutrophil cells was determined (Ex: 544 nm; Em: 590 nm). In this respect, the sample group free of any stimulation was defined to be the non-adhesion control group and the sample group stimulated with TNF-α was referred to as the adhesion control group to thus determine or calculate the cell adhesion-inhibitory rate of the compound of the present invention at each concentration, and the 50%-inhibitory concentration (IC50) was calculated from the cell adhesion-inhibitory rates thus determined according to the Probit technique. The same test procedures used above were repeated except for using different kinds of candidate compounds.

Data set [1] has as its system neutrophil infiltration (MPO activity). Put plainly: Effect on zymosan-induced neutrophil infiltration (MPO activity of peritoneal fluid). The class given is in vivo, ICR mice. To be noted: 30 mg/kg body weight orally, FIG. 1; for MPO activity with respect to the vehicle: 1 hour before intra-peritoneal zymosan, peritoneal fluid after 3 hours. Here is the method:
Each candidate compound was administered to 6-week-old male ICR mice, which had been fasted from the day before the initiation of this test. Each candidate compound was suspended in a 3% dimethylsulfoxide/carboxymethyl cellulose sodium solution and the resulting suspension was administered to the mice at a dose of 30 mg/kg body weight/10 mL. After the elapse of one hour, 1 mL of a 0.01% solution of zymosan in physiological saline was intra-peritoneally administered. After 3 hours, 5 mL of physiological saline was intra-peritoneally administered and the test animals were lightly massaged for 30 seconds. The abdominal wall of the test animals were slightly incised to thus collect the peritoneal fluid using a Pasteur pipette. Thereafter, the fluid thus recovered was centrifuged (at 20,000 g, for 20 minutes, at 4° C.), the resulting pellets were washed with a 50 mM sodium phosphate buffer (pH 6.0) and then again centrifuged. To the pellets thus recovered, there was added 0.5% hexadecyl trimethyl ammonium bromide (HTAB) and then centrifuged to thus give a supernatant, which was subsequently used as an enzyme source. To 15 μL of the enzyme source, there were added 200 μL of a 1.154 mM o-di-anisidine and 50 μL of a 0.005% hydrogen peroxide solution and then the optical densities at 450 nm (OD450) were determined to thus calculate the difference: (OD450 observed after 90 seconds from the initiation of the reaction)−(OD450 observed after 30 seconds from the initiation of the reaction), which was herein defined to be MPO activity. In this connection, the MPO activity was calculated, while defining the activity required for increasing the OD450 value by 0.001 as one unit. The MPO activity is herein defined to be the activity of the enzyme present in the neutrophils and accordingly, the reduction in the MPO activity means the inhibition of the neutrophil-infiltration. The results thus obtained are plotted on FIG. 1. […]

A short description of data set [2]: Toxicity test by administration of one time (single dose). To be noted: mouse, in vivo. An excerpt: Test Animals Used: ICR Male Mice (5-Week-Old):
They were purchased and then preliminarily kept over one week, prior to the practical use thereof in this test.
Each test group comprised 5 animals.
Inspected Items: Appearance (such as death, weakening); Physical Conditions (such as the presence of lateral turning); Consciousness (such as excitation, lethargy (coma)); Behaviors (such as convulsions); Properties of fecal matters; and Foreign matters present in the urine.

With `CC(=O)c1cn(-c2ccccc2)c(=O)c(Sc2ccc(F)cc2)c1C` [Compound 1, 5-acetyl-3-(4-fluorophenylthio)-4-methyl-1-phenyl-1H-pyridin-2-one], in the data set on neutrophils, the IC50 was found to be 400 nM. Further, the “MPO activity with respect to the vehicle” value in data set [1] was “decreases in the MPO activity”. Further, the “Result of single dose toxicity test (death, severe side-effect)” value in data set [2] was “All of the test animals were not died”.
The melting point is the temperature of the solid-liquid transition. `CC(=O)c1cn(-c2ccccc2)c(=O)c(C#N)c1C` [Compound 71, 5-acetyl-4-methyl-2-oxo-1-phenyl-1,2-di-hydro-pyridine-3-carbonitrile] showed a melting point of 215.4 to 216.8 °C.
As to `Cc1c(C(C)O)cn(-c2ccccc2)c(=O)c1Sc1ccc(F)cc1` (stereo not drawn) [Compound 77, 3-(4-Fluoro-phenylthio)-5-(1-hydroxyethyl)-4-methyl-1-phenyl-1H-pyridin-2-one], the IC50 in the data set with neutrophils came out at 980 nM.
Compound `CC(=O)c1c[nH]c(=O)c(Sc2ccc(F)cc2)c1C` [Compound 42, 5-acetyl-3-(4-fluoro-phenylthio)-4-methyl-1H-pyridin-2-one] returned a melting point of 236 to 238 °C.
For the compound `CC(=O)c1c(C)c(Sc2ccc(F)cc2)c(=O)n(-c2ccccc2)c1C` [Compound 62, 5-acetyl-3-(4-fluoro-phenylthio)-4,6-dimethyl-1-phenyl-1H-pyridin-2-one], in the data set with neutrophils, the IC50 came to 569 nM. Moreover, the “MPO activity with respect to the vehicle” value in data set [1] is “decreases in the MPO activity”. Also, the neutrophil infiltration-inhibitory effect result in data set [1] (zymosan-induced model) is reported as “excellent neutrophil infiltration-inhibitory effects”.
Turning to `CC(=O)c1cn(-c2ccccc2)c(=O)c(Sc2ncccn2)c1C` [Compound 74, 5-Acetyl-4-methyl-1-phenyl-3-(pyrimidin-2-yl-thio)-1H-pyridin-2-one], the melting point lay in the range of 184.5 to 185.3 °C.
Regarding `CC(=O)c1cn(-c2ccccc2)c(=O)c(Br)c1C` [Compound 70, 5-acetyl-3-bromo-4-methyl-1-phenyl-1H-pyridin-2-one], the melting point was 166.5 to 167.4 °C.
With `CCc1cn(-c2ccccc2)c(=O)c(Sc2ccc(F)cc2)c1C` [Compound 80, 5-Ethyl-3-(4-fluoro-phenylthio)-4-methyl-1-phenyl-1H-pyridin-2-one], the melting point lay in the range of 116.8 to 118.7 °C.
